Values of other authors in article PMC5572761 (Journal of medicinal chemistry, 2017).

Tested on: α3β4 nAChR
Details: read-out: IC50 [nM] α3β4; cited from earlier work

α-conotoxin AuIB [Peptide 17]
IC50: 750 nM
